Data: patent EP4768484A1, “HETEROCYCLIC FUSED RING COMPOUND, AND COMPOSITION AND USE THEREOF” (Shenzhen TargetRx, Inc., priority 2023, dated 2025)

Key:
Assay type in all cases: cell-based
[1] = target: T1, Ba/F3 BCR-ABL1 T315I (Homo sapiens, UniProt P00519+P11274, T315I); experiment: Cell growth inhibitory activity assay (CellTiter-Glo), Ba/F3 BCR-ABL1 T315I cells; settings: 72 h, CTG cell viability
T1 construct: BCR (N-terminal fusion partner of the oncoprotein); expressed in transfected cells; host or cells: Ba/F3 (lentiviral transduction, monoclonal line)
Outline: (§1)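 Compound dilutions applied for 72 h (37 °C, 5% CO2) to overnight-plated Ba/F3 cells, parental or engineered to express WT/mutant BCR-ABL1. ATP-based CellTiter-Glo luminescence read, referenced to day-0 viability and 0.5% DMSO wells; IC50 fitted by four-parameter logistic curve.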

[2] = target: T2, Ba/F3 BCR-ABL1 E255V/T315I (Homo sapiens, UniProt P00519+P11274, E255V/T315I); experiment: Cell growth inhibitory activity assay (CellTiter-Glo), Ba/F3 BCR-ABL1 E255V/T315I cells; settings: 72 h, CTG cell viability
T2 construct: BCR (N-terminal fusion partner of the oncoprotein); expressed in transfected cells; host or cells: Ba/F3 (lentiviral transduction, monoclonal line)
Description: (§2) In this assay, the Celltiter-Glo (CTG) kit provided by Promega was used, and it is a homogeneous cell viability assay method. The cell viability of cultured cells was measured by quantifying ATP. K562 cells were purchased from Nanjing Kebai, product number CBP60529; Ba/F3 parental cells were purchased from RIKEN BRC, product number RCB0805; other cells containing BCR-ABL1 WT, BCR-ABL1 T315I, BCR-ABL1 T315M, BCR-ABL1 Y253H/E255K, BCR-ABL1 E255V/T3151, BCR-ABL1 A424T, BCR-ABL1 A337V, BCR-ABL1 P465S, BCR-ABL1 V468F, and BCR-ABL1 I502L were all monoclonal engineered cell lines obtained by transducting Ba/F3 parental cells with the lentivirus plasmids containing WT or corresponding mutated BCR-ABL1.
(§3) The steps of cell viability assay are as follows: • a) Cells in logarithmic growth phase were collected. Cell suspension was prepared and the cells were counted. Concentration of the cells was calculated. • b) The cell suspension was diluted to the required concentration and then added to the middle wells of a 96-well plate, and PBS was added to the edge wells. The wells with no cells and only culture medium were used as blank controls. • c) In addition to the cell plate used for compound analysis, another 96-well plate was prepared as a T0 plate, and 3-6 blank wells and 3-6 cell wells were added. The next day, CTG was used to test the cell viability as the T0 viability value of the cells. • d) The cell plate was incubated at 37 °C in a 5% CO2 incubator overnight. • e) The next day, each concentration of a compound subjected to a gradient dilution was added, and the cell plate was incubated at 37 °C in a 5% CO2 incubator for 72 h. The wells with no compound and only 0.5% DMSO were used as positive controls for cell growth. • f) CTG reagent (CellTiter-Glo kit) was added according to the manufacturer's instructions to test the cell viability value. • g) The plate was read using Biotek cytation3.0 microplate reader and the data were exported. • h) IC50 was calculated using GraphPad Prism 7.0 software.
(§4) The IC50 (half-maximal inhibitory concentration) of the compound was obtained using the following nonlinear fitting formula: Y = Bottom + (Top−Bottom)/(1+10^(∧)((LogIC50−X)*HillSlope)) [formula] • X: Log value of the compound concentration • Y: Inhibition rate (% inhibition) • Top: Maximum response • Bottom: Baseline response • HillSlope: Slope of the curve
(§5) The formula for calculating cell inhibition rate (inhibition rate %) was: [formula]

[3] = target: T3, Ba/F3 BCR-ABL1 A337V (Homo sapiens, UniProt P00519+P11274, A337V); experiment: Cell growth inhibitory activity assay (CellTiter-Glo), Ba/F3 BCR-ABL1 A337V cells; settings: 72 h, CTG cell viability
T3 construct: BCR (N-terminal fusion partner of the oncoprotein); expressed in transfected cells; host or cells: Ba/F3 (lentiviral transduction, monoclonal line)
Description: as §2, §3, §4, §5

[4] = target: T4, Ba/F3 BCR-ABL1 I502L (Homo sapiens, UniProt P00519+P11274, I502L); experiment: Cell growth inhibitory activity assay (CellTiter-Glo), Ba/F3 BCR-ABL1 I502L cells; settings: 72 h, CTG cell viability
T4 construct: BCR (N-terminal fusion partner of the oncoprotein); expressed in transfected cells; host or cells: Ba/F3 (lentiviral transduction, monoclonal line)
Description: as §2, §3, §4, §5

[5] = target: T5, Ba/F3 BCR-ABL1 WT (Homo sapiens, UniProt P00519+P11274); experiment: Cell growth inhibitory activity assay (CellTiter-Glo), Ba/F3 BCR-ABL1 WT cells; settings: 72 h, CTG cell viability
T5 construct: BCR (N-terminal fusion partner of the oncoprotein); expressed in transfected cells; host or cells: Ba/F3 (lentiviral transduction, monoclonal line)
Outline: as §1

[6] = target: T6, Ba/F3 BCR-ABL1 V468F (Homo sapiens, UniProt P00519+P11274, V468F); experiment: Cell growth inhibitory activity assay (CellTiter-Glo), Ba/F3 BCR-ABL1 V468F cells; settings: 72 h, CTG cell viability
T6 construct: BCR (N-terminal fusion partner of the oncoprotein); expressed in transfected cells; host or cells: Ba/F3 (lentiviral transduction, monoclonal line)
Description: as §2, §3, §4, §5

[7] = target: T7, Ba/F3 BCR-ABL1 A424T (Homo sapiens, UniProt P00519+P11274, A424T); experiment: Cell growth inhibitory activity assay (CellTiter-Glo), Ba/F3 BCR-ABL1 A424T cells; settings: 72 h, CTG cell viability
T7 construct: BCR (N-terminal fusion partner of the oncoprotein); expressed in transfected cells; host or cells: Ba/F3 (lentiviral transduction, monoclonal line)
Description: as §2, §3, §4, §5

[8] = system: Ba/F3 parental cells; experiment: Cell growth inhibitory activity assay (CellTiter-Glo), Ba/F3 parental cells; settings: Mus musculus, BaF3, 72 h, CTG cell viability, read-out: IC50 Ba/F3 BCR-ABL1 Parental
Outline: as §1

[9] = system: K562 cells; experiment: Cell growth inhibitory activity assay (CellTiter-Glo), K562 cells; settings: Homo sapiens, 72 h, CTG cell viability
Outline: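 K562 cells in logarithmic growth were counted, diluted and plated in 96-well plates, with medium-only blanks and a separate T0 plate read by CTG the following day. After overnight incubation, graded compound concentrations were added for 72 h, with 0.5% DMSO wells as growth controls. Luminescence was read on a Biotek cytation3.0, and IC50 came from nonlinear fitting in GraphPad Prism 7.0.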

[10] = target: T8, Ba/F3 BCR-ABL1 P465S (Homo sapiens, UniProt P00519+P11274, P465S); experiment: Cell growth inhibitory activity assay (CellTiter-Glo), Ba/F3 BCR-ABL1 P465S cells; settings: 72 h, CTG cell viability
T8 construct: BCR (N-terminal fusion partner of the oncoprotein); expressed in transfected cells; host or cells: Ba/F3 (lentiviral transduction, monoclonal line)
Description: as §2, §3, §4, §5

[11] = target: T9, Ba/F3 BCR-ABL1 T315M (Homo sapiens, UniProt P00519+P11274, T315M); experiment: Cell growth inhibitory activity assay (CellTiter-Glo), Ba/F3 BCR-ABL1 T315M cells; settings: 72 h, CTG cell viability
T9 construct: BCR (N-terminal fusion partner of the oncoprotein); expressed in transfected cells; host or cells: Ba/F3 (lentiviral transduction, monoclonal line)
Description: as §2, §3, §4, §5

[12] = target: T10, Ba/F3 BCR-ABL1 Y253H/E255K (Homo sapiens, UniProt P00519+P11274, E255K/Y253H); experiment: Cell growth inhibitory activity assay (CellTiter-Glo), Ba/F3 BCR-ABL1 Y253H/E255K cells; settings: 72 h, CTG cell viability
T10 construct: BCR (N-terminal fusion partner of the oncoprotein); expressed in transfected cells; host or cells: Ba/F3 (lentiviral transduction, monoclonal line)
Description: as §2, §3, §4, §5

Row | Structure (SMILES) | IC50 [9] [nM] | IC50 [1] [nM] | IC50 [2] [nM] | IC50 [3] [nM] | IC50 [4] [nM] | IC50 [5] [nM] | IC50 [6] [nM] | IC50 [7] [nM] | IC50 [8] [nM] | IC50 [10] [nM] | IC50 [11] [nM] | IC50 [12] [nM]
1 | C[C@@H]1COCc2nc3cc(C(=O)Nc4ccc(OC(F)(F)Cl)cc4)cc(-c4cnc5c(c4)-c4nn(-c6ncc(F)cn6)cc4C5)c3n21 [T-68, (R)-N-(4-(chlorodifluoromethoxy)phenyl)-6-(2-(5-fluoropyrimidin-2-yl)-2,4-dihydropyrazolo[3',4':3,4]cyclopenta[1,2-b]pyridin-7-yl)-4-methyl-3,4-dihydro-1H-benzo[4,5]imidazo[2,1-c][1,4]oxazine-8-carboxamide] | ≤ 5 | ≤ 5 |  | 5 to 50 | ≤ 5 | ≤ 5 | 5 to 50 | ≤ 5 | > 1000 | 5 to 50 | ≤ 5 | 
2 | CC(=O)NC1CCC2c3cc(C(=O)Nc4ccc(OC(F)(F)Cl)cc4)cc(-c4cnc5c(c4)C(=O)N(C)C5)c3N(C(C)C)C12 (racemic) [T-11, 3-acetamido-N-(4-(chlorodifluoromethoxy)phenyl)-4-isopropyl-5-(6-methyl-5-oxo-6,7-dihydro-5H-pyrrolo[3,4-b]pyridin-3-yl)-1,2,3,3a,4,8b-hexahydrocyclopenta[b]indole-7-carboxamide] | ≤ 5 | 50 to 1000 | 50 to 1000 |  |  | ≤ 5 | > 1000 | 50 to 1000 | > 1000 |  | > 1000 | 50 to 1000
3 | C[C@@H]1COCc2nc3cc(C(=O)Nc4ccc(OC(F)(F)Cl)cc4)cc(-c4cnc5c(c4)-c4nc(N)sc4C5)c3n21 [T-114, (R)-6-(2-amino-4H-thiazolo[4',5':3,4]cyclopenta[1,2-b]pyridin-7-yl)-N-(4-(chlorodifluoromethoxy)phenyl)-4-methyl-3,4-dihydro-1H-benzo[4,5]imidazo[2,1-c][1,4]oxazine-8-carboxamide] | ≤ 5 | 5 to 50 | 50 to 1000 |  |  | ≤ 5 |  |  | > 1000 |  | > 1000 | 5 to 50

The next lines start with results.

Row | IC50 [9] [nM] | Structure (SMILES) | IC50 [1] [nM] | IC50 [2] [nM] | IC50 [3] [nM] | IC50 [4] [nM] | IC50 [5] [nM] | IC50 [6] [nM] | IC50 [7] [nM] | IC50 [8] [nM] | IC50 [10] [nM] | IC50 [11] [nM] | IC50 [12] [nM]
4 | ≤ 5 | CN1Cc2ncc(-c3cc(C(=O)Nc4ccc(OC(F)(F)Cl)cc4)cc4c3C(C)(C)C(=O)N4)cc2C1=O [T-7, N-(4-(chlorodifluoromethoxy)phenyl)-3,3-dimethyl-4-(6-methyl-5-oxo-6,7-dihydro-5H-pyrrolo[3,4-b]pyridin-3-yl)-2-oxoindoline-6-carboxamide] | 5 to 50 | 5 to 50 | > 1000 | 50 to 1000 | ≤ 5 | 50 to 1000 | > 1000 | > 1000 | > 1000 |  | 
5 | ≤ 5 | CC(C)n1cnc2cc(C(=O)Nc3ccc(OC(F)(F)Cl)cc3)cc(-c3cnc4c(c3)C(=O)N(C)C4)c21 [T-2, N-(4-(chlorodifluoromethoxy)phenyl)-1-isopropyl-7-(6-methyl-5-oxo-6,7-dihydro-5H-pyrrolo[3,4-b]pyridin-3-yl)-1H-benzo[d]imidazole-5-carboxamide] | 5 to 50 | 5 to 50 | 50 to 1000 | 50 to 1000 | ≤ 5 | 50 to 1000 | 50 to 1000 | > 1000 | 50 to 1000 |  | 
